# Results reported in patent US9212178B2, “Substituted pyrimidine compounds and their use as SYK inhibitors” (Genosco, priority 2013, dated 2015).
# Like-named read-outs stand apart in the source and are kept apart here.
# Legend:
# [1] = system: Collagen-induced arthritis in DBA/1J mice; assay: Collagen-induced arthritis (CIA) mouse model, macroscopic paw scoring; format: in vivo; settings: for CIA index (arthritic score of test group / vehicle group x 100): 30 mg/kg/day once daily oral gavage, vehicle = 100.0
# Protocol: CIA mouse model was induced in DBA/1J mice (Japan Charles River Breeding Laboratories, Kanagawa, Japan) with 5 to 6 weeks of age. Animals were maintained at a temperature of 20±5° C. and a relative humidity of 40˜60%.
# Bovine type II collagen (CII, 2 mg/ml dissolved in 0.05 M acetic acid, Chondrex, Redmond, Wash.) was emulsified in equal volumes of Freund's complete adjuvant (4 mg/ml of Mycobacterium tuberculosis strain H37Ra; Chondrex, Redmond, Wash.). On day 0, mice were immunized intradermally at the base of the tail with 100 μg bovine type II collagen emulsified in Freund's complete adjuvant. On day 21, all mice were boosted with an intraperitoneal injection of 100 μg type II collagen.
# These compounds were dissolved in NMP/20% cyclodextrin/PEG400 5:45:50 solution and filtered by […] membrane filter. All the test substances were administered once daily at 30 mg/kg/day by oral gavage for 3 weeks.
# The gradual onset of arthritis usually starts approximately 3 weeks after initial immunization. The progression of CIA was evaluated by the macroscopic scoring of paws at intervals of 3 days. The edema and swelling of each paw was scored visually as was described previously, using a scale of 0-4, where 0=no visible abnormalities, 1=mild redness or swelling of the wrist or up to three inflamed digits, 2=more than three inflamed digits or moderate redness and swelling of the ankle or wrist, 3=severe ankle and wrist inflammation, 4=extensive ankle and wrist inflammation including all digits. Therefore, the score of each mouse was calculated for the four limbs (maximum total score of 16 for each mouse) (Courtenay J S, Dallman M J, Dayan A D, et al., Immunisation against heterologous type II collagen induces arthritis in mice, Nature, 1980, 283, 666-668)
# Arthritis was considered to be present if the score was >2. The blind scoring was performed by four independent observers. In this study, data was calculated by following equation. […] Results
# [2] = system: THP-1 cells; assay: SYK-dependent TNF-α release assay (IgG stimulation), ELISA; format: cell-based; settings: THP-1 cells on human IgG-coated plate, 18 hours; read-out: TNF-α release inhibition, IgG stimulation IC50
# Protocol: In order to address cellular potency of Compounds of Formula (I), TNF-a production was measured on treatment of a series of concentration of SYK inhibitor in THP-1 cells.
# For SYK-dependent TNF-α release assay (i.e., via IgG stimulation), THP-1 cells derived from human monocytic cells were obtained from the American Type Culture Collection (ATCC, Manassas, Va.). This cell line was maintained with a Roswell Park Memorial Institute (RPMI) medium (GIBCO) containing 10% fetal bovine serum (FBS; GIBCO) and 0.05 mM solution of 2-mercaptoethanol. The THP-1 cells were seeded at 1×10^5 cells/100 μL/well into human IgG (10 ng/well, INVITROGEN)-coated 96 well culture plate, and serially diluted compound was then added. After an 18 hours of incubation period at 37° C., supernatants were collected for the determination of the TNF-α level by enzyme-linked immunosorbent assay (ELISA), and the remaining cells were subjected to an MTT (yellow tetrazolium salt) assay to determine the cytotoxic effects of the compound. The IC50 value of the test compound was calculated at Gradpad Prism 5 unless otherwise specified.
# [3] = system: Human peripheral CD19+ B cells; assay: Cellular SLE model: immunoglobulin production in human peripheral B cells stimulated via TLR9 (ODN2006); format: cell-based; settings: for IC50: 144 h, human B cell, ODN2006 and IL-2, 6 days; for Inhibition of IgG and IgM production (in words): TLR9 stimulated by ODN2006 and IFNα
# Text: Systemic lupus erythematosus (SLE) is a chronic inflammatory autoimmune disease and can affect several organs and systems. It is characterized by high production of autoantibodies against nuclear compounds. TLR7/8/9 are responsible for nucleic acid recognition and they trigger proinflammatory responses through activation of […] and Type I IFN production, making a bridge between the innate and the adaptive immune systems. TLR9 signaling pathway was adopted for cellular SLE model using human peripheral B cells to test potency of SYK inhibitor of Formula (I).
# Human peripheral CD19+ B cells from an adult healthy donor were purchased from Sanguine Biosciences (Sherman Oaks, Calif.). B cells were cultured in 96-well plates with complete RPMI 1640 medium (Corning, Tewksbury, Mass.) supplemented with 10% heat-inactivated FBS (Life Technologies, Grand Island, N.Y.) and penicillin/streptomycin (Corning). B cells were stimulated with 1 μM ODN2006 (InvivoGen, San Diego, Calif.) and 20 ng/ml IFNα (PBL Assay Science, Piscataway, N.J.) for 3 days for toll-like receptor-9 (TLR-9)-mediated B cell growth. To differentiate naïve B cells into plasma cells, peripheral B cells were differentiated with 50 nM ODN2006 and 10 ng/ml IL-2 in a presence of various concentrations of SYK inhibitors for 6 days. Culture supernatants were collected and IgM and IgG production was measured using human IgM or IgG ELISA kit (BioLegend).
# [4] = system: SUDHL6; assay: DLBCL cell proliferation, ATPLite assay; format: cell-based, human; settings: for IC50: Homo sapiens, SU-DHL-6, SUDHL6, 72 hours, read-out: Inhibition of proliferation IC50; for Inhibition of proliferation (in words): SUDHL6
# Text: (§1) Several lines of evidence support the role of B cell receptor (BCR)-mediated survival signals in certain B cell malignancies such as non-Hodgkin lymphomas (NHL) including diffuse large B cell lymphoma (DLBCL). B cell receptor (BCR) signaling pathway components represent promising treatment targets in diffuse large B cell lymphoma (DLBCL) and additional B cell tumors. In order to address whether SYK inhibitor of Compounds of Formula (I), cellular viability of diffuse large B cell lymphoma (DLBCL) cells was measured on treatment of a series of concentration of SYK inhibitor.
# (§2) The DLBCL cells, SUDHL4, SUDHL6 and OCI-LY1 […] were obtained from the American Type Culture Collection (ATCC, Manassas, Va., USA) or DSMZ (Braunschweig, Germany). […] The SUDHL4, SUDHL6 and OCI-LY1 cells were seeded at 1×10^5 cells/100 μL/well into 96 well culture plate, and serially diluted compound was then added. After an 72 hours of incubation period at 37° C., cells were subjected to an ATPLite assay (PerkinElmer) to determine the cytotoxic effects of the compound. The IC50 value of the test compound was calculated at Gradpad Prism 5 unless otherwise specified.
# [5] = system: OCI-LY1; assay: DLBCL cell proliferation, ATPLite assay; format: cell-based, human; settings: for IC50: Homo sapiens, OCI-LY1, 72 hours, read-out: Inhibition of proliferation IC50; for Inhibition of proliferation (in words): OCI-LY1
# Text: as §1, §2
# [6] = system: SUDHL4; assay: DLBCL cell proliferation, ATPLite assay; format: cell-based, human; settings: for IC50: Homo sapiens, SU-DHL-4, SUDHL4, 72 hours, read-out: Inhibition of proliferation IC50; for Inhibition of proliferation (in words): SUDHL4
# Text: as §1, §2
# [7] = molecular target: full-length human SYK (Homo sapiens (Human), UniProt P43405); assay: Inhibition of enzymatic SYK kinase activity (LANCE Ulight TK peptide); format: biochemical; settings: ATP at Km (15 uM), 30 min pre-incubation
# Protocol: Compounds of the present invention were assayed to measure their capacity to inhibit a spleen tyrosine kinase (SYK).
# Compounds of the invention were initially diluted to 10 mM in 100% DMSO (CALBIOCHEM™) for storage and made into kinase buffer solution to create a compound concentration ranging from 1 uM and 10 uM. Serial dilutions of compounds of the invention were dispensed into a 96-well plate (GREINER BIOSCIENCES™) at 6 μL each. Purified full-length human SYK (CARNA BIOSCIENCES™) were diluted in kinase buffer and added to the compound solutions and pre-incubated for 30 minutes at room temperature. […] The reaction mixture was incubated for 1 hour. Following the incubation, the stop solution made with EDTA, water, and Lance detection buffer ([…]™) was added (12 μL each) to stop phosphorylation.
# [8] = read-out: Inhibition of immunoglobulin production, IgG IC50
# [9] = read-out: Inhibition of immunoglobulin production, IgM IC50
SMILES,"Inhibition in arthritis phenotype indicated by CIA, compared with R788 (in words) ([1]; 30 mg/kg/day oral, versus R788)",CIA index (arthritic score of test group / vehicle group x 100) ([1]; day 4) [%],CIA index (arthritic score of test group / vehicle group x 100) ([1]; day 7) [%],CIA index (arthritic score of test group / vehicle group x 100) ([1]; day 10) [%],CIA index (arthritic score of test group / vehicle group x 100) ([1]; day 13) [%],CIA index (arthritic score of test group / vehicle group x 100) ([1]; day 17) [%],CIA index (arthritic score of test group / vehicle group x 100) ([1]; day 19) [%],IC50 [2] [nM],"IC50 [3, 8] [nM]","IC50 [3, 9] [nM]",Inhibition of IgG and IgM production (in words) [3],IC50 [4] [nM],Inhibition of proliferation (in words) [4],IC50 [5] [nM],Inhibition of proliferation (in words) [5],IC50 [6] [nM],Inhibition of proliferation (in words) [6],IC50 [7] [nM]
"Cc1nn(-c2ccnc(Nc3ccc4c(c3)c(C(=O)C3CC3)cn4C)n2)cc1CN1C[C@H](O)CO1 [Compound 1, (S)-cyclopropyl(5-(4-(4-((4-hydroxyisoxazolidin-2-yl)methyl)-3-methyl-1H-pyrazol-1-yl)pyrimidin-2-ylamino)-1-methyl-1H-indol-3-yl)methanone]",stronger inhibition,3.0 ± 2.8,24.0 ± 9.2,40.1 ± 13.8,36.2 ± 12.0,33.5 ± 10.5,33.6 ± 10.4,52,296,232,potent inhibition,2840,potent inhibition,1830,potent inhibition,1070,potent inhibition,
"Cn1cc(C(=O)C2CC2)c2cc(Nc3nccc(-n4cc(CN5C[C@H](O)CO5)cn4)n3)ccc21 [Compound 30, (S)-cyclopropyl(5-(4-(4-((4-hydroxyisoxazolidin-2-yl)methyl)-1H-pyrazol-1-yl)pyrimidin-2-ylamino)-1-methyl-1H-indol-3-yl)methanone]",,,,,,,,17,188,90,potent inhibition,929,potent inhibition,2300,potent inhibition,952,potent inhibition,2.46
